Results taken from article PMC11050599, “Novel Tetracyclic Azaphenothiazines with the Quinoline Ring as New Anticancer and Antibacterial Derivatives of Chlorpromazine” (International Journal of Molecular Sciences, 2024).
≈ marks a conversion by molar mass, not a printed value. Read-outs that look alike come from different tables or passages of the source.

Legend:
A549 (lung cancer) = assay: MTT assay, A549 cells; type: cell-based, human; details: for IC50: MTT, 72 h, mean SD, read-out: IC50 A549; for SI A549: SI = IC50 for normal cell line (HaCaT)/IC50 cancer cell line
Experimental: (§1) The human cell lines, such as A549 (lung cancer), MDA-MB-231 (breast cancer), MiaPaca-2 (pancreatic cancer), PC3 (metastatic prostate cancer), HCT-116 (colon carcinoma), and HaCaT (immortalized keratinocytes), were sourced from the American Type Culture Collection (ATCC) in Rockville, USA. Culturing conditions varied as follows: HCT116 cells were cultured in MEM (ThermoSci, Waltham, MA, USA), A549, MDA-MB-231, MiaPaca, HaCaT cells in DMEM High Glucose and PC3 cells were cultured in RPMI (Biowest SAS, Nuaillé, France). The growth medium consisted of 10% fetal bovine serum (FBS, Sigma-Aldrich, St. Louis, MO, USA), 20 mM HEPES (Biowest, Nuaillé, France), and antibiotics (100 U/mL of penicillin and 100 μg/mL of streptomycin) from Gibco, Grand Island, NY, USA. […] These compounds were added to 96-well plates containing study cells (1 × 10^4 cells per well) and incubated for 72 h. […] Cell absorbance results were incorporated into the formula for calculating the relative MTT level (%), enabling the assessment of cell viability following exposure to the test compounds. The cell viability percentage represents the MTT reduction in cells treated with the test compounds compared to the control sample, where only the medium was added to the cells.

[1] = system: MDA-MB-231 (breast cancer); assay: MTT assay, MDA-MB-231 cells; type: cell-based, human; details: for IC50: MTT, 72 h, MDA-MB231, read-out: IC50 MDA; for SI MDA: SI = IC50 for normal cell line (HaCaT)/IC50 cancer cell line
Experimental: as §1

[2] = system: HaCaT (immortalized human keratinocytes); assay: MTT assay, HaCaT normal cells; type: cell-based; details: MTT, 72 h, normal cells, read-out: IC50 HaCaT (Table 3)
Experimental: as §1

E. coli ATCC 25922 = assay: MIC broth microdilution; type: cell-based; details: 19 h, 35 °C; for MIC: Escherichia coli, ATCC25922, read-out: MIC E. coli ATCC 25922
From the text: (§2) To evaluate the antibacterial effectiveness of chloroquinobenzothiazine derivatives, various bacterial strains from international microbe collections such as the American Type Culture Collection (ATCC) and the National Collection of Type Culture (NCTC) were examined, alongside a panel of clinical rods. This included two Gram-negative organisms, E. coli ATCC 25922 and P. aeruginosa ATCC 15442, and a series of six Gram-positive strains: S. aureus NCTC 4163; S. aureus ATCC 29213, 25923, and 6538; and S. epidermidis ATCC 12228 and 35984. […] The MIC was determined using the two-fold serial broth microdilution method in 96-well microtitration plates containing Mueller-Hinton II broth medium (Becton Dickinson, Franklin Lakes, NJ, USA). The final inoculum for all tested bacteria was adjusted to […] (colony-forming units per milliliter). The stock solution of the tested compounds was prepared in dimethyl sulfoxide (DMSO) and diluted to a maximum of 1% solvent content with a sterile medium.

P. aeruginosa ATCC 15442 = assay: MIC broth microdilution; type: cell-based; details: 19 h, 35 °C; for MIC: Pseudomonas aeruginosa, ATCC15442, read-out: MIC P. aeruginosa ATCC 15442
From the text: as §2

S. aureus ATCC 25923 = assay: MIC broth microdilution; type: cell-based; details: 19 h, 35 °C; for MIC: Staphylococcus aureus, ATCC25923, read-out: MIC S. aureus ATCC 25923
From the text: as §2

S. aureus ATCC 29213 = assay: MIC broth microdilution; type: cell-based; details: 19 h, 35 °C; for MIC: Staphylococcus aureus, ATCC29213, read-out: MIC S. aureus ATCC 29213
From the text: as §2

S. aureus ATCC 6538 = assay: MIC broth microdilution; type: cell-based; details: 19 h, 35 °C; for MIC: Staphylococcus aureus, ATCC6538, read-out: MIC S. aureus ATCC 6538
From the text: as §2

S. aureus NCTC 4163 = assay: MIC broth microdilution; type: cell-based; details: 19 h, 35 °C; for MIC: Staphylococcus aureus, NCTC4163, read-out: MIC S. aureus NCTC 4163
From the text: as §2

[3] = system: S. epidermidis ATCC 12228; assay: MIC broth microdilution; type: cell-based; details: 19 h, 35 °C; for MIC: Staphylococcus epidermidis, ATCC12228, read-out: MIC S. epidermidis ATCC 12228
From the text: as §2

[4] = system: S. epidermidis ATCC 35984; assay: MIC broth microdilution; type: cell-based; details: 19 h, 35 °C; for MIC: Staphylococcus epidermidis, ATCC35984, read-out: MIC S. epidermidis ATCC 35984
From the text: as §2

| Compound | SI A549 (A549 (lung cancer)) | SI MDA [1] | IC50 (A549 (lung cancer); Homo sapiens, A549) [µM] | IC50 ([1]; Homo sapiens, MDA-MB-231) [µM] | IC50 ([2]; Homo sapiens, HaCaT) [µM] | MIC (E. coli ATCC 25922) [µg/mL] | MIC (P. aeruginosa ATCC 15442) [µg/mL] | MIC (S. aureus ATCC 25923) [µg/mL] | MIC (S. aureus ATCC 29213) [µg/mL] | MIC (S. aureus ATCC 6538) [µg/mL] | MIC (S. aureus NCTC 4163) [µg/mL] | MIC [3] [µg/mL] | MIC [4] [µg/mL] | further results |
| --- | --- | --- | --- | --- | --- | --- | --- | --- | --- | --- | --- | --- | --- | --- |
| 8-Chloro-6-[(1-(4-chlorobenzyl)-1H-1,2,3-triazol-4-yl)methyl]-quinobenzo[1,4]thiazine [Compound 31] | 1.0 | 1.0 | – | – | – | – | – | – | – | – | – | – | – | IC50 (A549 (lung cancer)): > 100 µM; IC50 [1]: > 100 µM; IC50 [2]: > 100 µM; MIC E. coli ATCC 25922 (E. coli ATCC 25922): >256 µg/mL; MIC P. aeruginosa ATCC 15442 (P. aeruginosa ATCC 15442): >256 µg/mL; MIC S. aureus ATCC 25923 (S. aureus ATCC 25923): >256 µg/mL; MIC S. aureus ATCC 29213 (S. aureus ATCC 29213): >256 µg/mL; MIC S. aureus ATCC 6538 (S. aureus ATCC 6538): >256 µg/mL; MIC S. aureus NCTC 4163 (S. aureus NCTC 4163): >256 µg/mL; MIC S. epidermidis ATCC 12228 [3]: >256 µg/mL; MIC S. epidermidis ATCC 35984 [4]: >256 µg/mL |
| 8-Chloro-6-[(1-benzyl-1H-1,2,3-triazol-4-yl)-methyl]-quinobenzo[1,4]thiazine [Compound 29] | 1.0 | 1.0 | – | – | – | – | – | – | – | – | – | – | – | IC50 (A549 (lung cancer)): > 100 µM; IC50 [1]: > 100 µM; IC50 [2]: > 100 µM; MIC E. coli ATCC 25922 (E. coli ATCC 25922): >256 µg/mL; MIC P. aeruginosa ATCC 15442 (P. aeruginosa ATCC 15442): >256 µg/mL; MIC S. aureus ATCC 25923 (S. aureus ATCC 25923): >256 µg/mL; MIC S. aureus ATCC 29213 (S. aureus ATCC 29213): >256 µg/mL; MIC S. aureus ATCC 6538 (S. aureus ATCC 6538): >256 µg/mL; MIC S. aureus NCTC 4163 (S. aureus NCTC 4163): >256 µg/mL; MIC S. epidermidis ATCC 12228 [3]: >256 µg/mL; MIC S. epidermidis ATCC 35984 [4]: >256 µg/mL |
| CCN(CC)CCN1c2cc(Cl)ccc2Sc2cc3ccccc3nc21 [Compound 7, 2-(8-Chloroquino[3,2-b]benzo[1,4]thiazin-6-yl)-N,N-diethylethan-1-amine] | 3.7 | 1.0 | 27.2 ± 8.4 | > 100 | > 100 | > 256 | > 256 | 8 (≈ 20.8 µM) | 8 (≈ 20.8 µM) | 8 (≈ 20.8 µM) | 8 (≈ 20.8 µM) | 8 (≈ 20.8 µM) | 8 (≈ 20.8 µM) | – |
| Clc1ccc2c(c1)N(CCN1CCCCC1)c1nc3ccccc3cc1S2 [Compound 10, 8-Chloro-6-(2-(piperidin-1-yl)ethyl)-quino[3,2-b]benzo[1,4]thiazine] | 1.6 | 1.0 | 63.8 ± 8.5 | > 100 | > 100 | > 256 | > 256 | > 256 | > 256 | > 256 | > 256 | > 256 | > 256 | – |
| CC(=O)NCCCN1c2cc(Cl)ccc2Sc2cc3ccccc3nc21 [Compound 16, N-(3-(8-Chloroquino[3,2-b]benzo[1,4]thiazin-6-yl)propyl)acetamide] | 4.1 | 1.3 | 24.6 ± 6.1 | 76.6 ± 8.9 | > 100 | > 256 | > 256 | > 256 | > 256 | > 256 | > 256 | > 256 | > 256 | – |
| CC(=O)NCCCCN1c2cc(Cl)ccc2Sc2cc3ccccc3nc21 [Compound 17, N-(4-(8-Chloroquino[3,2-b]benzo[1,4]thiazin-6-yl)butyl)acetamide] | 1.2 | 1.0 | 82.3 ± 6.2 | > 100 | > 100 | > 256 | > 256 | > 256 | > 256 | > 256 | > 256 | > 256 | > 256 | – |
| CCOC(=O)NCCCN1c2cc(Cl)ccc2Sc2cc3ccccc3nc21 [Compound 18, Ethyl(3-(8-chloroquino[3,2-b]benzo[1,4]thiazin-6-yl)propyl)carbamate] | 1.1 | 1.0 | 86.6 ± 0.8 | > 100 | > 100 | > 256 | > 256 | > 256 | > 256 | > 256 | > 256 | > 256 | > 256 | – |
| CCOC(=O)NCCCCN1c2cc(Cl)ccc2Sc2cc3ccccc3nc21 [Compound 19, Ethyl(4-(8-chloroquino[3,2-b]benzo[1,4]thiazin-6-yl)butyl)carbamate] | 1.0 | 1.0 | > 100 | > 100 | > 100 | > 256 | > 256 | > 256 | > 256 | > 256 | > 256 | > 256 | > 256 | – |
| CS(=O)(=O)NCCCN1c2cc(Cl)ccc2Sc2cc3ccccc3nc21 [Compound 22, N-(3-(8-Chloroquino[3,2-b]benzo[1,4]thiazin-6-yl)propyl)methanesulfonamide] | 1.0 | 1.0 | > 100 | > 100 | > 100 | > 256 | > 256 | > 256 | > 256 | > 256 | > 256 | > 256 | > 256 | – |
| Cc1ccc(S(=O)(=O)NCCCN2c3cc(Cl)ccc3Sc3cc4ccccc4nc32)cc1 [Compound 24, N-(3-(8-Chloroquino[3,2-b]benzo[1,4]thiazin-6-yl)propyl)-4-methylbenzenesulfonamide] | 1.0 | 1.0 | > 100 | > 100 | > 100 | > 256 | > 256 | > 256 | > 256 | > 256 | > 256 | > 256 | > 256 | – |
| C#CCN1c2cc(Cl)ccc2Sc2cc3ccccc3nc21 [Compound 26, 8-chloro-6-propynyquinobenzothiazine] | 1.0 | 0.7 | > 100 | 95.8 ± 9.2 | 71.7 ± 5.7 | > 256 | > 256 | > 256 | > 256 | > 256 | > 256 | > 256 | > 256 | – |
| FC(F)(F)c1ccc(-n2cc(CN3c4cc(Cl)ccc4Sc4cc5ccccc5nc43)nn2)cc1 [Compound 28, 8-Chloro-6-((1-(4-(trifluoromethyl)phenyl)-1H-1,2,3-triazol-4-yl)methyl)-quino[3,2-b]benzo[1,4]thiazine] | 1.0 | 1.0 | > 100 | > 100 | > 100 | > 256 | > 256 | > 256 | > 256 | > 256 | > 256 | > 256 | > 256 | – |
